Patent publication US9333209B2, “Compositions for increasing hair growth” (The Board of Trustees of the Leland Stanford Junior …, priority 2012, dated 2016)
“Also recorded” adds a separate entry of the source.

Assays:
[1] = tested on: murine hair follicle cycling; details: small molecule screen of calcium blockers; mice
Protocol: To understand how calcium signaling controls hair follicle stem cell regulation, a screen for small molecules that affect murine hair follicle cycling was carried out. The compounds included a survey of different classes of cell permeable slow and fast channel blockers applied to the skin.
We performed a small molecule screen to find out if any of the available calcium blockers affected hair follicle cycling.

[2] = tested on: bulge stem cells of Cav fx/-; K15 CrePR mice; assay: Verapamil treatment of RU486 treated Cav fx/-; K15 CrePR mice; assay type: in vivo, mouse
Source text: Loss of function mutation of this channel entails a removal of exon 13 and 14 of Cav 1.2 gene (FIG. 1). […] Cav fx/- mice were crossed to K15CrePR animals to remove the pore region of the channel in the bulge stem cells. RU486 treatment of Cav fx/-; K15CrePR allowed the removal of the pore region. […] Loss of function mutation, which represents the closed state of this channel, results in the same phenotype as the open state of the channel.

[3] = tested on: bulge stem cells; assay: microarray analysis and RT-PCR on Verapamil treated bulge cells; assay type: in vivo, mouse
Source text: Out of those, the gene Follistatin like 1 (Fstl1) stood out. Fstl1 is a secreted glycoprotein that inhibits BMP signaling in lung and ureter development.
There are other BMP inhibitors that are known to affect hair cycling.

[4] = tested on: hair follicles of wild type mice; assay: Verapamil treatment of wild type mice in first telogen
[5] = tested on: hair cycling; assay: subcutaneous injection of Fstl1 protein soaked beads, effect on hair cycling; assay type: in vivo, mouse; details: half dose (2 μg) soaked beads, Day 21-22 mice
Protocol: To understand the effect of Fstl1 on hair cycling, we subcutaneously injected two different doses of Fstl1 protein (4 μg and 2 μg) soaked beads to Day 21-22 mice. In 2 to 4 days, these mice went into anagen (n=8, FIG. 7D).

[6] = treated bulge stem cells vs control bulge stem cells

In the case of `COc1ccc([C@@H]2Sc3ccccc3N(CCN(C)C)C(=O)[C@@H]2OC(C)=O)cc1` [Diltiazem, diltiazem], the entry to anagen [1] is reported as “showed the same results; also recorded: precocious entry into anagen”.

With `COc1ccc(CCN(C)CCCC(C#N)(c2ccc(OC)c(OC)c2)C(C)C)cc1OC` (stereo not shown) [Verapamil, verapamil] the “anagen entry later than wild type littermates” value ([2]; drug treated Cav fx/-, K15 CrePR mutant mice, RU486 treated) was 2 to 4 days, the “H and E staining of skin sections” value ([2]; treated mice vs control skin with telogen hair follicles) was “anagen hair follicles” and the Bambi expression ([3]; treated bulge stem cells) was “downregulated”. For the same molecule, the Noggin expression ([3]; treated bulge stem cells) was “downregulated”, the “Fstl1 expression (RT-PCR)” value [3, 6] was “upregulated” and the Tmeff1 expression [3, 6] was “does not change much”. The “H and E staining of skin sections” value ([4]; drug treated wild type mice vs telogen hair follicles in control mice) was “anagen hair follicles” and the “early anagen (advance of anagen entry)” value ([4]; wild type mice treated between days 21 and 28 (first telogen), n=8) was 5 to 7 days.

B1: Fstl1 protein: secreted glycoprotein that inhibits BMP signaling; deduced 308-amino acid protein with FS module (protein, UniProt Q12841 21-308, looked up)
Follistatin-related protein 1: EEELRSKSKICANVFCGAGRECAVTEKGEPTCLCIEQCKPHKRPVCGSNGKTYLNHCELHRDACLTGSKIQVDYDGHCKEKKSVSPSASPVVCYQSNRDELRRRIIQWLEAEIIPDGWFSKGSNYSEILDKYFKNFDNGDSRLDSSEFLKFVEQNETAINITTYPDQENNKLLRGLCVDALIELSDENADWKLSFQEFLKCLNPSFNPPEKKCALEDETYADGAETEVDCNRCVCACGNWVCTAMTCDGKNQKGAQTQTEEEMTRYVQELQKHQETAEKTKRVSTKEI
In the case of B1, the entry to anagen [5] is reported as “only partial entry to anagen”.
